Results from PubChem BioAssay (NCI).
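Grown in 96-well plates, cells were treated for 48 hours with each compound at five concentrations. Insufficient inhibition: endpoint recorded as highest concentration tested. GI50 marks 50% less growth. The concentration for full growth arrest is given as TGI.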

Columns and labels:
Assay in all cases: NCI tumour cell line growth inhibition, 48 h
[1] = test system: 786-0 renal
[2] = test system: A498 renal
[3] = test system: ACHN renal
[4] = test system: BT-549 breast
[5] = test system: CAKI-1 renal
[6] = test system: CCRF-CEM leukemia
[7] = test system: COLO 205 colon
[8] = test system: DU-145 prostate
[9] = test system: EKVX NSCLC
[10] = test system: HCC-2998 colon
[11] = test system: HCT-116 colon
[12] = test system: HCT-15 colon
[13] = test system: HL-60(TB) leukemia
[14] = test system: HOP-62 NSCLC
[15] = test system: HOP-92 NSCLC
[16] = test system: HS 578T breast
[17] = test system: HT29 colon
[18] = test system: IGROV1 ovarian
[19] = test system: K-562 leukemia
[20] = test system: KM12 colon
[21] = test system: LOX IMVI melanoma
[22] = test system: M14 melanoma
[23] = test system: MCF7 breast
[24] = test system: MDA-MB-231 breast
[25] = test system: MDA-MB-435
[26] = test system: MOLT-4 leukemia
[27] = test system: NCI-H226 lung
[28] = test system: NCI-H23 lung
[29] = test system: NCI-H460 lung
[30] = test system: NCI/ADR-RES ovarian
[31] = test system: OVCAR-4 ovarian
[32] = test system: OVCAR-8 ovarian
[33] = test system: PC-3 prostate
[34] = test system: RPMI-8226 leukemia
[35] = test system: RXF 393 renal
[36] = test system: SF-268 CNS
[37] = test system: SF-295 CNS
[38] = test system: SF-539 CNS
[39] = test system: SK-MEL-2 melanoma
[40] = test system: SK-MEL-28 melanoma
[41] = test system: SK-MEL-5 melanoma
[42] = test system: SK-OV-3 ovarian
[43] = test system: SNB-19 CNS
[44] = test system: SNB-75 CNS
[45] = test system: SR leukemia
[46] = test system: SW-620 colon
[47] = test system: T-47D breast
[48] = test system: TK-10 renal
[49] = test system: U251 CNS
[50] = test system: UACC-257 melanoma
[51] = test system: UACC-62 melanoma
[52] = test system: UO-31 renal
[53] = test system: A549 NSCLC
[54] = test system: MALME-3M melanoma
[55] = test system: NCI-H522 lung
[56] = test system: OVCAR-3 ovarian
[57] = test system: OVCAR-5 ovarian
[58] = test system: SN12C renal

## CC1=NN(c2nc(N)nc(CC#N)n2)C(C)(C)C1
[1]
  TGI: > 100 µM
[2]
  TGI: > 100 µM
[3]
  TGI: > 100 µM
[4]
  TGI: > 100 µM
[5]
  TGI: > 100 µM
[6]
  TGI: > 100 µM
[7]
  TGI: > 100 µM
[8]
  TGI: > 100 µM
[9]
  TGI: > 100 µM
[10]
  TGI: > 100 µM
[11]
  TGI: > 100 µM
[12]
  TGI: > 100 µM
[13]
  TGI: > 100 µM
[14]
  TGI: > 100 µM
[15]
  TGI: > 100 µM
[16]
  TGI: > 100 µM
[17]
  TGI: > 100 µM
[18]
  TGI: > 100 µM
[19]
  TGI: > 100 µM
[20]
  TGI: > 100 µM
[21]
  TGI: > 100 µM
[22]
  TGI: > 100 µM
[23]
  TGI: > 100 µM
[24]
  TGI: > 100 µM
[25]
  TGI: > 100 µM
[26]
  TGI: > 100 µM
[27]
  TGI: > 100 µM
[28]
  TGI: > 100 µM
[29]
  TGI: > 100 µM
[30]
  TGI: > 100 µM
[31]
  TGI: > 100 µM
[32]
  TGI: > 100 µM
[33]
  TGI: > 100 µM
[34]
  TGI: > 100 µM
[35]
  TGI: > 100 µM
[36]
  TGI: > 100 µM
[37]
  TGI: > 100 µM
[38]
  TGI: > 100 µM
[39]
  TGI: > 100 µM
[40]
  TGI: > 100 µM
[41]
  TGI: > 100 µM
[42]
  TGI: > 100 µM
[43]
  TGI: > 100 µM
[44]
  TGI: > 100 µM
[45]
  TGI: > 100 µM
[46]
  TGI: > 100 µM
[47]
  TGI: > 100 µM
[48]
  TGI: > 100 µM
[49]
  TGI: > 100 µM
[50]
  TGI: > 100 µM
[51]
  TGI: > 100 µM
[52]
  TGI: > 100 µM

## COc1cc(-c2nc(-c3nc4ccccc4[nH]3)cc3c2[nH]c2ccccc23)cc(OC)c1OC
[1]
  GI50: 50.7 µM
  TGI: > 100 µM
[2]
  GI50: 2.43 µM
  TGI: > 100 µM
[53]
  GI50: 3.2 µM
  TGI: > 100 µM
[3]
  GI50: 4.86 µM
  TGI: > 100 µM
[4]
  GI50: 5.48 µM
  TGI: > 100 µM
[5]
  GI50: 7.03 µM
  TGI: > 100 µM
[6]
  GI50: 3.96 µM
  TGI: > 100 µM
[7]
  GI50: 4.58 µM
  TGI: > 100 µM
[8]
  GI50: 6.27 µM
  TGI: > 100 µM
[10]
  GI50: 7.32 µM
  TGI: > 100 µM
[11]
  GI50: 3.95 µM
  TGI: > 100 µM
[12]
  GI50: 4.14 µM
  TGI: > 100 µM
[13]
  GI50: 4.37 µM
  TGI: > 100 µM
[14]
  GI50: 5.87 µM
  TGI: > 100 µM
[15]
  GI50: 0.526 µM
  TGI: 5.38 µM
[16]
  GI50: 4.44 µM
  TGI: > 100 µM
[17]
  GI50: 6.87 µM
  TGI: > 100 µM
[18]
  GI50: 2.94 µM
  TGI: > 100 µM
[19]
  GI50: 4.33 µM
  TGI: > 100 µM
[20]
  GI50: 3.67 µM
  TGI: > 100 µM
[21]
  GI50: 4.72 µM
  TGI: > 100 µM
[22]
  GI50: 4.18 µM
  TGI: > 100 µM
[54]
  GI50: 4.31 µM
  TGI: > 100 µM
[23]
  GI50: 4.11 µM
  TGI: > 100 µM
[24]
  GI50: 8.38 µM
  TGI: > 100 µM
[25]
  GI50: 3.65 µM
  TGI: > 100 µM
[26]
  GI50: 3.93 µM
  TGI: > 100 µM
[27]
  GI50: 7.19 µM
  TGI: > 100 µM
[28]
  GI50: 4.4 µM
  TGI: > 100 µM
[29]
  GI50: 3.96 µM
  TGI: > 100 µM
[55]
  GI50: 3.51 µM
  TGI: > 100 µM
[30]
  GI50: 3.59 µM
  TGI: > 100 µM
[56]
  GI50: 6.2 µM
  TGI: > 100 µM
[31]
  GI50: 47.4 µM
  TGI: > 100 µM
[57]
  GI50: > 100 µM
  TGI: > 100 µM
[32]
  GI50: 2.79 µM
  TGI: > 100 µM
[33]
  GI50: 2.64 µM
  TGI: > 100 µM
[34]
  GI50: 2.15 µM
  TGI: 8.61 µM
[35]
  GI50: 3.25 µM
  TGI: > 100 µM
[36]
  GI50: 4.81 µM
  TGI: > 100 µM
[38]
  GI50: 23.1 µM
  TGI: > 100 µM
[39]
  GI50: 3.58 µM
  TGI: > 100 µM
[40]
  GI50: 6.89 µM
  TGI: > 100 µM
[41]
  GI50: 2.99 µM
  TGI: > 100 µM
[42]
  GI50: > 100 µM
  TGI: > 100 µM
[58]
  GI50: 6.27 µM
  TGI: > 100 µM
[43]
  GI50: 9.45 µM
  TGI: > 100 µM
[45]
  GI50: 9.5 µM
  TGI: > 100 µM
[46]
  GI50: 7.14 µM
  TGI: > 100 µM
[47]
  GI50: 2.92 µM
  TGI: > 100 µM
[48]
  GI50: 4.71 µM
  TGI: > 100 µM
[49]
  GI50: 4.76 µM
  TGI: > 100 µM
[50]
  GI50: 3.57 µM
  TGI: > 100 µM
[51]
  GI50: 3.38 µM
  TGI: > 100 µM
[52]
  GI50: 3.62 µM
  TGI: > 100 µM
